From ChEMBL document CHEMBL1136786, “2002 Medicinal Chemistry Division Award address: monoamine transporters and opioid receptors. Targets for addiction therapy” (J Med Chem, 2003) come the findings set out here.

Assay [1] is filed under the species Mus musculus. Description: Antagonistic activity of nicotine-induced analgesia in mice was determined. In kind it is functional.
In assay [2] the target is Sodium-dependent noradrenaline transporter (Homo sapiens, UniProt P23975). Description: Inhibition of Norepinephrine (NA) reuptake using cloned human Norepinephrine transporter was determined.
Assay [3] concerns Rattus norvegicus. Description: Maximal locomotor activity of compound compared as a percent of cocaine's effect in rat by intraperitoneal administration. In kind it is functional.
Assay [4] has as its target T1, Norepinephrine transporter (Rattus norvegicus, UniProt Q9WTR4). Briefly: Inhibition of [3H]nisoxetine binding at norepinephrine transporter.
Assay [5] deals with Rattus norvegicus. Description: Effective dose of compound required to produce maximal locomotor activity in cocaine-trained rat by intraperitoneal administration. In kind it is functional. Particulars: ip.
Assay [6] concerns the target Sodium-dependent serotonin transporter (Rattus norvegicus, UniProt P31652). Description: Inhibition of [3H]paroxetine binding at serotonin transporter was determined.
Assay [7] addresses Sodium-dependent dopamine transporter (Homo sapiens, UniProt Q01959). Description: Inhibition of dopamine (DA) reuptake using cloned human dopamine transporter was determined.
Assay [8] has as its target Sodium-dependent serotonin transporter (Homo sapiens, UniProt P31645). Briefly: Inhibition of Serotonin (5-HT) reuptake using cloned human transporter was determined.
The species entered for assay [9] is Mus musculus. Description: Antagonistic activity of nicotine-induced hypothermia in mice was determined. The class given is functional.
Assay [10] concerns the target T1, Norepinephrine transporter. Description: Affinity for norepinephrine transporter determined by [3H]nisoxetine displacement.
Assay [11] relates to Rattus norvegicus. Description: Time during which activity returned to baseline level in rat by intraperitoneal administration. The class given is functional.
The test system of assay [12] is Rattus norvegicus. Description: Effective dose of compound required to produce maximal locomotor activity in rat by intraperitoneal administration. The class given is functional. As to conditions: ip.
The target in assay [13] is Sodium-dependent dopamine transporter (Rattus norvegicus, UniProt P23977). Briefly: Inhibition of [3H]WIN-35428 binding at dopamine transporter was determined.
The subject of assay [14] is Rattus norvegicus. Description: Time taken to produce maximal locomotor activity at 30 min period in rat by intraperitoneal administration. In kind it is functional.
The species named for assay [15] is Rattus norvegicus. Description: Half life of recovery for dopamine transporter in striatum was determined. In kind it is functional.
Assay [16] is filed under the species Rattus norvegicus. Briefly: Degradation rate constant for dopamine transporter in striatum was determined. The class given is functional.
The species named for assay [17] is Rattus norvegicus. Description: Half life of recovery for dopamine transporter in nucleus accumbens was determined. In kind it is functional.
For assay [18], the species on record is Rattus norvegicus. Description: Degradation rate constant for dopamine transporter in nucleus accumbens was determined. The class given is functional.
The species named for assay [19] is Rattus norvegicus. In kind it is functional, Cardiac ventricle.
Assay [20] concerns Rattus norvegicus. Description: Degradation rate constant for dopamine transporter in striatum after intraventricular injection of 100 nmol of compound. In kind it is functional.
The test system of assay [21] is Rattus norvegicus. Briefly: Degradation rate constant for dopamine transporter in nucleus accumbens after intraventricular injection of 100 nmol of compound. The class given is functional.
For assay [22], the species on record is Rattus norvegicus. The class given is functional, Striatum.
The subject of assay [23] is Rattus norvegicus. Description: Half life of recovery for dopamine transporter in striatum after intraventricular injection of 100 nmol of compound. The class given is functional, organism-based.
The test system of assay [24] is Rattus norvegicus. Briefly: Half life of recovery for dopamine transporter in nucleus accumbens after intraventricular injection of 100 nmol of compound. The class given is functional, organism-based.

What is called IC50 is the point on the concentration scale where inhibition reaches its midpoint. As a reminder, the ED50 is the midpoint of the dose-response relation. Lower therefore signals an effect at a small dose. For orientation: Ki means a dissociation constant, usually derived from enzyme kinetics or from competition with a known ligand. The low end stands for tighter binding, the high end for weaker binding.

SMILES strings stand for the structures. Several values for one entry are separate records, joined by “and”; a condition that tells them apart may be missing. Identical values can stand only once.

T1 sequence (Q9WTR4 whole entry): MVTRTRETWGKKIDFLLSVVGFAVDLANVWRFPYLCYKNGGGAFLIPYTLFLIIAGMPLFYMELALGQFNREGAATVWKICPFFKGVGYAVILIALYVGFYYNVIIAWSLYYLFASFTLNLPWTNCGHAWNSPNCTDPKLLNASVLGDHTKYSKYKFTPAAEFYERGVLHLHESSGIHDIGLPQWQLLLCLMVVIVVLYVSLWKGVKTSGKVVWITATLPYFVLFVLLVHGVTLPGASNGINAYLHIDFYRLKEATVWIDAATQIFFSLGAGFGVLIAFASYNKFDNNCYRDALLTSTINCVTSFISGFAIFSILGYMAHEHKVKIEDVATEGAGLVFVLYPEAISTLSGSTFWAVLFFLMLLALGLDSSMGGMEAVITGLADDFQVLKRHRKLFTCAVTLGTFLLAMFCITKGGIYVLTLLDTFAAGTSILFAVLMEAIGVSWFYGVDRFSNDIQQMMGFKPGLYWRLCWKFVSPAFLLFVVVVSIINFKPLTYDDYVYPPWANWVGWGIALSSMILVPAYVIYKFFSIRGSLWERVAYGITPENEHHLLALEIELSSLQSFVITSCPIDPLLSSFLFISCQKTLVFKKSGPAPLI
Sodium-dependent serotonin transporter (Rattus norvegicus, UniProt P31652), sequence (P31652 whole entry): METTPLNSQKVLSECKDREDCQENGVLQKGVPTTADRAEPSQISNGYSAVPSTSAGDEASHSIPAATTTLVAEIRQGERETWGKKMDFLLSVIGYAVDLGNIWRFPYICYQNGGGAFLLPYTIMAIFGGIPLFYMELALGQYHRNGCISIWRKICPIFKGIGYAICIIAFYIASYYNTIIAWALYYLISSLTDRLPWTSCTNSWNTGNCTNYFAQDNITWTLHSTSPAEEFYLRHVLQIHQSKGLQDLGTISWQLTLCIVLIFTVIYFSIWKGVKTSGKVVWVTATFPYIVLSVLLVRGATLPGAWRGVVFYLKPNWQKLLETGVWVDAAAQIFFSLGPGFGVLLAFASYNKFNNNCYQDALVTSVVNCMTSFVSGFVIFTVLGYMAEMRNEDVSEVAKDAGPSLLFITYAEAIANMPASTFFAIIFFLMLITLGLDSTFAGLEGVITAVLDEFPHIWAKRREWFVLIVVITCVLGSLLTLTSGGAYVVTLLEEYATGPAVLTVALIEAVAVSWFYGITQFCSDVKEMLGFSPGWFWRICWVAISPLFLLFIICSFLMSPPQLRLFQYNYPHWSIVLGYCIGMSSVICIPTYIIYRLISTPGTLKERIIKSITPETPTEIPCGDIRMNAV
Sodium-dependent dopamine transporter (Rattus norvegicus, UniProt P23977), sequence (P23977 whole entry): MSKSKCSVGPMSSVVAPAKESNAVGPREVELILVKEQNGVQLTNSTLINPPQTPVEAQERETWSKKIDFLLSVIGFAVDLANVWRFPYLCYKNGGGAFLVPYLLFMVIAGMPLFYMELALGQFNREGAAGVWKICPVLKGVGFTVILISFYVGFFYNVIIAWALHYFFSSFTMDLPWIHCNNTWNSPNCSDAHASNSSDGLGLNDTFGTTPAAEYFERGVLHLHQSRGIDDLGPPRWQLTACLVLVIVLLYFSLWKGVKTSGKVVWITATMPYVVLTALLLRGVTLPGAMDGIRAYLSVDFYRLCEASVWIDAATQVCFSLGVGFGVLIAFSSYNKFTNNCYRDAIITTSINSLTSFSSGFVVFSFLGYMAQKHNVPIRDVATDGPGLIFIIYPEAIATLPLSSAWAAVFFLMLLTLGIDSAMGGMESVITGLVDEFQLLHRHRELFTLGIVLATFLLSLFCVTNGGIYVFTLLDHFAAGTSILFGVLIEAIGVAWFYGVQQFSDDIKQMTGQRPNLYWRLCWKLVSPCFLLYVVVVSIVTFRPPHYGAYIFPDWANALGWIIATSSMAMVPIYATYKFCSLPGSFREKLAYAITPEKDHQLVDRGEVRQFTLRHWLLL
Sodium-dependent dopamine transporter (Homo sapiens, UniProt Q01959), sequence (Q01959 whole entry): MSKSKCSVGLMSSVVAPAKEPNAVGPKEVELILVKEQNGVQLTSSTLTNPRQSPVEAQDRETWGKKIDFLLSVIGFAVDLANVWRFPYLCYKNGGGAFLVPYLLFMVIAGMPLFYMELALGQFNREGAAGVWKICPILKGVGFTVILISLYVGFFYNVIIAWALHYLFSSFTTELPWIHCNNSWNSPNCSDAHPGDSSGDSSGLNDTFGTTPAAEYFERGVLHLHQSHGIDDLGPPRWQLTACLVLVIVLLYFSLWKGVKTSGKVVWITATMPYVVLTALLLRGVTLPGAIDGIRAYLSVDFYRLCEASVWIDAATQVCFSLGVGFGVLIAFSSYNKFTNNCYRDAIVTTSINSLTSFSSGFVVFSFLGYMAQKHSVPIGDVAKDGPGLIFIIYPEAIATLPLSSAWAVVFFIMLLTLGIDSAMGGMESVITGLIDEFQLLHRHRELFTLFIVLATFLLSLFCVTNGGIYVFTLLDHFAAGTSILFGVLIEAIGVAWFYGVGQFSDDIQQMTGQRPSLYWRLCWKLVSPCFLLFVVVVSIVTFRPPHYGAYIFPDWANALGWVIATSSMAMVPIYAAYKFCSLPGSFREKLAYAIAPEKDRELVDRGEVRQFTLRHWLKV
Sodium-dependent noradrenaline transporter, sequence (P23975 whole entry): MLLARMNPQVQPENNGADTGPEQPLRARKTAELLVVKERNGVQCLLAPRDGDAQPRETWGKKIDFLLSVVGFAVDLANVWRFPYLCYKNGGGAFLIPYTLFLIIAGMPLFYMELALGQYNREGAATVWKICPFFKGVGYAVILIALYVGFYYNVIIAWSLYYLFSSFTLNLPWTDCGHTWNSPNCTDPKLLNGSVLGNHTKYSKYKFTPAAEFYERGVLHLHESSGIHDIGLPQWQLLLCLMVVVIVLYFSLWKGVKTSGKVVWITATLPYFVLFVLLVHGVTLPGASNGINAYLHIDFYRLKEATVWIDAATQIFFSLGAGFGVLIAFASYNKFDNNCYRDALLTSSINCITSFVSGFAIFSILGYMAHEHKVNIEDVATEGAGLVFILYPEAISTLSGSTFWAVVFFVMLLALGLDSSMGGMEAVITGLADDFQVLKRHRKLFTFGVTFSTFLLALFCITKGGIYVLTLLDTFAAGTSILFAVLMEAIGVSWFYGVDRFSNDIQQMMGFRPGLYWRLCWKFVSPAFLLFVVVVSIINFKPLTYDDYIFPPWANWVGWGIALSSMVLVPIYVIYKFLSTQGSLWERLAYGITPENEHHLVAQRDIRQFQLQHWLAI
Sodium-dependent serotonin transporter (Homo sapiens, UniProt P31645), sequence (P31645 whole entry): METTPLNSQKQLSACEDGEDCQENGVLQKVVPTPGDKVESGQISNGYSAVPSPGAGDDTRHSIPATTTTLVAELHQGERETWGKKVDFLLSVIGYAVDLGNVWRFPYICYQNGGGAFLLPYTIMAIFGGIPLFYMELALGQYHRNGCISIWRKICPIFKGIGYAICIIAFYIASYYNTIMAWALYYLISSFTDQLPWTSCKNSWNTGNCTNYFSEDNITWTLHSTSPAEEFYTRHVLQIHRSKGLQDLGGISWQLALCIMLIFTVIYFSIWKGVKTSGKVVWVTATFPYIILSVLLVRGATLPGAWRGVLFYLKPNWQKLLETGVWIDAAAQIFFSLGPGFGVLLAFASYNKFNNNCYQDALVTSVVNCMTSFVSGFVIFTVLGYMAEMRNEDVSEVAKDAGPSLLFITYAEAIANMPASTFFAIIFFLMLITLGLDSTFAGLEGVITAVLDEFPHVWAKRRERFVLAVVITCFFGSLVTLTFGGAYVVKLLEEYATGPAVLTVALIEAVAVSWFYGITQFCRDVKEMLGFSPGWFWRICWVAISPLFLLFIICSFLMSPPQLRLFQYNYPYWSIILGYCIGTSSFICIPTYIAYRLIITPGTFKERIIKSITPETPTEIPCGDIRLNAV

Turning to `COC(=O)C1C2CC[C@H](C[C@@H]1c1ccc(Cl)c(C)c1)N2C` (stereo not given in full), the results for the AD50 in the assay listed under Mus musculus [1] and in the assay listed under Mus musculus [9] were 3.5 mM/kg and 1.5 mM/kg, respectively. In addition, the IC50 in [2] was determined as 0.8 nM; in assay [4] it was 36.2 nM; in assay [6], 10.5 nM; in assay [7], 0.6 nM; in [8], 1 nM; in [13], 0.81 nM. Besides, in the assay with Rattus norvegicus [3], the “Maximal locomotor activity (% of cocaine)” value is 75%. Further, the ED50 was determined as 0.21 mg/kg in the assay with Rattus norvegicus [5] and 2.2 mg/kg in the assay with Rattus norvegicus [12]. In addition, the Ki in [6] worked out at 0.95 nM; in [10], 2.8 nM. In the assay with Rattus norvegicus [11], the Time is over 4 h. Further, the Peak time with Rattus norvegicus [14] was determined as 30 min.
Consider `COC(=O)[C@H]1[C@@H](OC(=O)c2ccccc2)C[C@@H]2CC[C@H]1N2C` [COCAINE], for which the Change was 22% in the assay filed under Rattus norvegicus [15]; -17% and -16% in the assay listed under Rattus norvegicus [16]; 43% in the assay listed under Rattus norvegicus [17]; -30% and -27% in the assay filed under Rattus norvegicus [18]. In addition, in the assay on Rattus norvegicus [3], the “Maximal locomotor activity (% of cocaine)” value is 100%. Also, the figures for the 50% effective dose (ED50) with Rattus norvegicus [5] and in the assay on Rattus norvegicus [12] were 2.5 mg/kg and 21 mg/kg, respectively. This compound also came in with a Time with Rattus norvegicus [11] of under 2 h. The compound also showed a Peak time in the assay on Rattus norvegicus [14] of 0 min.
In the case of `CN1C2CC[C@@H]1C[C@H](c1ccc(Cl)cc1)C2C(=O)OCCc1ccc(N=S)cc1` (stereo not given in full), the “Transporter production rate (r)” value in the assay filed under Rattus norvegicus [19] amounted to 106 fM/mg/day; in the assay listed under Rattus norvegicus [22], 202 fM/mg/day. Moreover, the “Transporter deg rate const (k)” value with Rattus norvegicus [20] was 0.34 day⁻¹; with Rattus norvegicus [21] it was 0.3 day⁻¹. The concentration for half-maximal inhibition (IC50) stood at 1400 nM in assay [4], 7.1 nM in assay [6] and 5.3 nM in [13]. In addition, the values for the Ki in assay [6] and in assay [10] were 0.65 nM and 843 nM, respectively. The T1/2 in the assay with Rattus norvegicus [23] and in the assay on Rattus norvegicus [24] was 50.4 h throughout.
